Laboratory results: paper PMC8220083 (Frontiers in Pharmacology, 2021)
Where “and” joins values, the source holds several entries; their conditions need not be identical. Equal entries are not always repeated. Where two headings read alike, the source gives them in different places. One block for each compound: values may come before it.

Experiments:
[1] = target: T1, Human leukocyte elastase (HLE-G) (Homo sapiens, UniProt P08246); experiment: Inhibition of HLE-G enzymatic activity; assay type: biochemical; settings: for IC50: compound vs. HLE-G (75 µM), 10 min at 37°C, 5 min with substrate; for HLE-G Molar excess: molar excess of compound to HLE-G at IC50
T1 construct: purchased Athens Research & Technology 16-14-051200
T1 sequence (P08246 30-267): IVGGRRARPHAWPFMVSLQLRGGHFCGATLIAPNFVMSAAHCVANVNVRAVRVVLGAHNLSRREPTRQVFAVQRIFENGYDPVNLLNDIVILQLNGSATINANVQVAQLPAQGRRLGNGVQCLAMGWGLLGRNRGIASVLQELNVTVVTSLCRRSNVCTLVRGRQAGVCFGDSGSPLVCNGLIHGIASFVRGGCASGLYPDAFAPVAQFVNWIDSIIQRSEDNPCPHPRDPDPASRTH
Procedure: Inhibition of HLE-G enzymatic activity. Two-fold serial dilutions of HLE-G in 100 µl Tris-buffered saline (pH 7.8) were added to rows of wells of a microtiter plate as previously described ([Bristow et al., 1991]). […] The microtiter plate was incubated for 10 min at 37°C. The HLE-G substrate (Succinyl-L-Ala-L-Ala-L-Ala-p-nitroanilide, Sigma) was added to all wells, and absorbance at 405 nm was detected kinetically at 23°C using an MRX plate reader.

[2] = target: T2, cell surface human leukocyte elastase (HLE-CS) on U937 Clone 10 cells (Homo sapiens, UniProt P08246); experiment: Cellular adherence to glass (HLE-CS interaction); assay type: cell-based; settings: 2,000 U937 cells per well; for HLE-CS Adherent cells: at optimal concentration; for HLE-CS Optimal concentration: optimal adherence concentration
T2 construct: endogenous in cells; host or cells: human U937 Clone 10 cells
T2 sequence (P08246 30-267): T1 sequence (P08246 30-267)
Source text: Cellular adherence. […] […] Unattached cells were removed by washing using AIM-V, and attached cells were fixed by application of 4% paraformaldehyde. Attached cells were counted by light microscopy.

[3] = assay type: in vivo, human; settings: HIV-1-infected, 8 weekly infusions 120 mg/kg
Procedure: Clinical trial NCT01731691: This clinical trial was a double-blind, randomized study as previously described ([Bristow et al., 2019]). Written informed consent was received from 12 individuals, 8 HIV-1-infected individuals and 4 uninfected controls. Blood was collected weekly at the same time of day at baseline and for 8 subsequent weeks from uninfected, untreated controls and from HIV-1-infected individuals who were treated weekly with Prolastin-C (n = 3) or with placebo (n = 5). […] Inclusion criteria HIV-1 uninfected, untreated controls were the same as for HIV-1 infected subjects excluding HIV-related criteria. Grifols Biotherapeutics contributed a sufficient quantity of Prolastin-C (lot# 26NLK52) for administration of 8 weekly infusions at a dose of 120 mg/kg. The study protocol was approved by Copernicus Group Independent Institutional Review Board, Durham, NC. Drug delivery and blood collection were performed at ACRIA, New York, NY.
Human apolipoproteins measurement. Total cholesterol, high density lipoprotein (HDL), low density lipoprotein (LDL), triglycerides, apolipoprotein E (apoE), and apolipoprotein A1 (apoA1) measurements were performed by ICON Central Laboratory, Farmingdale, NY. Cholesterol, HDL, and triglycerides were measured using the Chol2, HDLC3, TRIGL methods on the Roche/Hitachi cobas c analyzer. LDL was calculated using the formula total cholesterol – HDL – (triglycerides/5). ApoE was quantitated using the Kamiya Biomedical Co. K-assay immunoturbidimetric method. ApoA1 was quantitated using the Siemens N antisera method by immunonephelometry on the BN II and BN ProSpec System. Total apoB and apoB48 measurements were contracted by ICON Central Laboratory to Nexelis (formerly Pacific Biomarkers). Total apoB was measured in serum by immunoturbidimetry using the Roche Modular P instrument and Goat polyclonal antibody specific for human apoB. ApoB48 wase measured by sandwich ELISA using a capture monoclonal antibody and detection using a biotin-conjugated polyclonal antibody followed by HRP-conjugated Streptavidin and addition of a chromogenic substrate using a SoftMax Pro ELISA plate reader. ApoB100 was calculated as total apoB minus apoB48. Cholesterol, triglycerides, HDL, LDL, apoE and apoA1 were measured by ICON Central Laboratory, Farmingdale, NY.

E. coli DH5-Alpha = experiment: Kirby-Bauer Disk Test of antibiotic activity; assay type: cell-based; settings: for diameter of zone of inhibition: 16 h at 37°C; for inhibitory dose: disk test
Procedure: Antibiotic activity. […] D-Ampicillin-sensitive E. coli DH5-Alpha was cultured overnight in LB broth, and the cell concentration was calibrated using McFarland Turbidity Standard […] for <300 × 10^6 CFU. At this concentration of cells, bacteria were spread on Mueller-Hinton agar plates. […] After incubation for 16 h at 37°C, plates were examined for zones of inhibition.

[4] = Diet-induced obesity (DIO) mouse model, lipoprotein levels; assay type: in vivo, C57BL/6J mice; settings: 60% fat diet, daily oral gavage; for LDL levels: after 3 weeks, ezetimibe 10 mg/kg, Alphataxin 5 mg/kg; for LDL levels / triglyceride levels: vs vehicle control; for triglyceride levels: weeks 3, 6, 8
Procedure: Animal Studies. Animal studies were performed by Jackson Laboratory (Bar Harbor, ME), an OLAW-Assured and AAALAC accredited institution. All research was reviewed and approved by the Institutional Animal Care and Use Committee (IACUC) prior to commencing. The study used 16–17 weeks old male DIO C57BL/6J mice that had been maintained on a 10% (control) or 60% high-fat diet. […] Treatment was delivered by daily oral gavage at the same time of day for 12 weeks. Blood was collected by retro-orbital bleed every 3 weeks for measurement of total cholesterol, LDL, HDL, triglycerides, […] free fatty acids and glucose using the Beckman Coulter AU680 Chemistry System.
Food consumption was monitored twice weekly, and body weight was monitored weekly. As mice gained weight on the 60% high-fat diet during the study, dosing was adjusted accordingly. Mice were monitored for adverse effects (e.g., labored breathing, aberrant weight change). Three mice were lost during the study. […] The mice lost in the ezetimibe group were due to a severe bite wound and an unknown causes. The mouse lost in the Alphataxin group was due to an abnormal amount of gas in the stomach attributed to a gavaging error.

[5] = tested on: Leishmania amazonensis promastigotes; parameters: method as in Andrade-Neto et al., 2016; settings: ref Andrade-Neto et al., 2016; read-out: IC50 for killing Leishmania amazonensis promastigotes; cited from earlier work
[6] = parameters: method as in Nissen et al., 2016; settings: ref Nissen et al., 2016, cited from earlier work
Lactobacillus spp. = tested on: Lactobacillus spp.; parameters: method as in Catry et al., 2015; settings: ref Catry et al., 2015; cited from earlier work
U937 Clone 10 cells = experiment: Receptor polarization and endocytosis of SHIV; assay type: cell-based, human; settings: for SHIV localization: cells preconditioned 15 min 37°C
Procedure: Receptor Polarization and Endocytosis. To Eppendorf tubes that been precoated with RPMI-1640 containing 10% fetal bovine serum to prevent attachment, were added 250 μl containing 5 × 10^5 U937 Clone 10 cells.
U937 Clone 10 cells were pulsed with SHIV particles (30 ng p27 or p24 per 10^6 cells) for 2 h at 2°C, a circumstance that allows binding, but prevents endocytosis. Alternatively, cells were pulsed with virus for 2 h at 37°C, a circumstance that allows binding and endocytosis ([Bristow et al., 2012]). Following pulsing for 2 h, cells were pelleted, resuspended in AIM-V and allowed to adhere to Alcian blue coated microscope slides for 8 min at 4°C, washed, and fixed using 4% paraformaldehyde as previously described ([Frank et al., 2002]). The presence of AT-2 virus in test cells was detected using dodecameric human CD4-IgG1 provided by the Laboratory of Immunoregulation, NIAID, NIH. This reagent specifically recognizes conformationally intact HIV/SIV envelope gp120. CD4-IgG1 was detected using rabbit anti-human IgG conjugated with horse radish peroxidase (SigmaAldrich). CD4-IgG-labeled cells were coupled to Oregon 488 fluorochrome using the tyramide signal amplification system (Life Science Products, Boston, MA, United States). In some cases, cells stained on slides were permeabilized using 0.05% saponin during the blocking step and further stained with the nuclear staining dye, 4′,6-diamidino-2-phenylindole (DAPI), mounted, and examined by epifluorescence microscopy using a Zeiss Axioplan to detect positive and negative reactions. Representative samples of positive and negative reactions were subsequently captured by confocal microscopy using a Perkin Elmer Operetta High Content Imaging System. Cells were analyzed by confocal microscopy using 2 μm scanning from the attached surface toward the unattached surface.

Compound: CC1(C)S[C@@H]2[C@H](NC(=O)COc3ccccc3)C(=O)N2[C@H]1C(=O)O [Pen V, Penicillin V]
IC50 [1]: 262 µM | HLE-G Molar excess [1]: 3.5 | HLE-CS Adherent cells [2]: 30 ± 4 | HLE-CS Optimal concentration [2]: 10 nM

Compound: Prolastin-C: sterile plasma-purified α1PI preparation from Grifols, lot# 26NLK52, infused weekly at 120 mg/kg
HDL levels [3]: decreased from above normal to below normal levels | apoA1 levels [3]: decreased from above normal to below normal levels | apoB48 levels [3]: decreased from above normal to below normal levels | apoB100 levels [3]: did not significantly decrease | apoE levels [3]: decreased from above normal to normal levels | total cholesterol levels [3]: decreased from above normal to normal levels | triglycerides levels [3]: decreased from above normal to normal levels | LDL levels ([3]; vs placebo arm): significantly lower than in the placebo arm

Compound: C[C@@H](O)[C@H]1C(=O)N2C(C(=O)O)=C(S[C@@H]3CN[C@H](CNS(N)(=O)=O)C3)[C@H](C)[C@H]12 [Doripenem]
IC50 [1]: 178 µM | HLE-G Molar excess [1]: 2.4 | HLE-CS Adherent cells [2]: 52 ± 6 | HLE-CS Optimal concentration [2]: 100 nM

Compound: CC1(C)S[C@@H]2[C@H](NC(=O)[C@H](N)c3ccccc3)C(=O)N2[C@H]1C(=O)O [D-Ampicillin]
diameter of zone of inhibition (E. coli DH5-Alpha; 0.005 mM): 1.4 cm | diameter of zone of inhibition (E. coli DH5-Alpha; 0.5 mM): 3.8 cm | diameter of zone of inhibition (E. coli DH5-Alpha; 5 mM (Figure 2 legend)): 3.0 cm | diameter of zone of inhibition (E. coli DH5-Alpha; 50 mM (Figure 2 legend)): 3.8 cm | inhibitory dose (E. coli DH5-Alpha): ≥ 0.005 mM and ≥ 1.75 μg/ml

Compound: O=C1[C@H](CC[C@H](O)c2ccc(F)cc2)[C@@H](c2ccc(O)cc2)N1c1ccc(F)cc1 [Ezetimibe]
IC50 [1]: 277 µM | HLE-G Molar excess [1]: 3.7 | LDL levels [4]: significantly decreased | triglyceride levels [4]: did not | IC50 [5]: 30 µM | HLE-CS Adherent cells [2]: 40 ± 3 | HLE-CS Optimal concentration [2]: 100 nM | effectiveness in lowering LDL levels vs PCSK9 inhibitors ([6]; p < 0.001): significantly less effective | individuals with muscle symptoms [6]: 28% | effect on intestinal microbiome (Lactobacillus spp.): increasing the Lactobacillus spp.

Compound: C[C@@H](O)[C@H]1C(=O)N2C(C(=O)O)=C([C@H]3CCCO3)S[C@H]12 [Faropenem]
IC50 [1]: 203 µM | HLE-G Molar excess [1]: 2.7 | HLE-CS Adherent cells [2]: 23 ± 4 | HLE-CS Optimal concentration [2]: 10 nM

Compound: CC1(C)S[C@@H]2[C@H](NC(=O)[C@@H](N)c3ccccc3)C(=O)N2[C@H]1C(=O)O [Alphataxin]
LDL levels [4]: significantly decreased | LDL lowering compared with ezetimibe ([4]; p = 0.90): equivalent to ezetimibe | triglyceride levels [4]: significantly lowered | antibiotic effectiveness against E. coli (E. coli DH5-Alpha): not an effective antibiotic against E. coli | diameter of zone of inhibition (E. coli DH5-Alpha; 0.05 mM): 1.5 cm | diameter of zone of inhibition (E. coli DH5-Alpha; 0.5 mM): 2.8 cm | diameter of zone of inhibition (E. coli DH5-Alpha; 5 mM (Figure 2 legend)): 1.5 cm | diameter of zone of inhibition (E. coli DH5-Alpha; 50 mM (Figure 2 legend)): 2.8 cm | inhibitory dose (E. coli DH5-Alpha): ≥ 0.05 mM and ≥ 17.5 μg/ml | MIC (E. coli DH5-Alpha; extrapolated from 10-fold greater minimum inhibitory dose than D-ampicillin): ≥ 80 µg/mL | cellular locomotion and endocytosis (U937 Clone 10 cells): mimics α1PI activity by binding to HLE-CS and inducing cellular locomotion and endocytosis | SHIV localization (U937 Clone 10 cells; SHIV 2 h at 2°C): SHIV detected only on the exterior plasma membrane of polarized cells, never internalized into the cells | SHIV localization (U937 Clone 10 cells; SHIV 2 h at 37°C): SHIV was detected internal to the cells

Compound: Cc1onc(-c2c(Cl)cccc2Cl)c1C(=O)N[C@@H]1C(=O)N2[C@@H]1SC(C)(C)[C@@H]2C(=O)O [Dicloxacillin]
IC50 [1]: 232 µM | HLE-G Molar excess [1]: 3.1 | HLE-CS Adherent cells [2]: 26 ± 9 | HLE-CS Optimal concentration [2]: 1 nM

The next lines start with the values.

HLE-CS Adherent cells [2]: 54 ± 20 | HLE-CS Optimal concentration [2]: 1 nM
Compound: CC1(C)S[C@@H]2[C@H](NC(=O)[C@H](N)c3ccc(O)cc3)C(=O)N2[C@H]1C(=O)O [Amoxicillin]

IC50 [1]: 167 µM | HLE-G Molar excess [1]: 2.2 | HLE-CS Adherent cells [2]: 34 ± 8 | HLE-CS Optimal concentration [2]: 1 nM
Compound: CO/N=C(\C(=O)N[C@@H]1C(=O)N2C(C(=O)O)=C(COC(N)=O)CS[C@H]12)c1ccco1 [Cefuroxine, Cefuroxime]

HLE-CS Adherent cells [2]: 27 ± 10
Compound: CC1=C(C(=O)O)N2C(=O)[C@@H](NC(=O)[C@H](N)c3ccccc3)[C@H]2SC1 [Cephalexin]

IC50 [1]: 234 µM | HLE-G Molar excess [1]: 3.1 | HLE-CS Adherent cells [2]: 33 ± 4 | HLE-CS Optimal concentration [2]: 1 nM
Compound: C[C@H]1[C@H](NC(=O)/C(=N\OC(C)(C)C(=O)O)c2csc(N)n2)C(=O)N1S(=O)(=O)O [Aztreonam]
